The test system of this experiment is P388 leukemia ip, CD2F1 mice, survival T/C. Description: NCI In Vivo Anticancer Drug Screen. Data for tumor model P388 Leukemia (intraperitoneal) in CD2F1 (CDF1) mice. To be noted: endpoint: median survival time, higher = longer survival. In outline:
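Mice carrying the transplanted tumor received test compound or vehicle. Survival was recorded in each group, and the value is the treated-group measurement divided by that of the vehicle-treated control group.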

The mark [1] stands for this setting: dose: 50.0 mg/kg/injection, schedule: Q01DX009 (ip), vehicle: saline.
Setting [2] is: dose: 12.5 mg/kg/injection, schedule: Q04DX003 (ip), vehicle: saline.
The mark [3] stands for this setting: dose: 25.0 mg/kg/injection, schedule: Q04DX003 (ip), vehicle: saline.
Where [4] appears, read: dose: 50.0 mg/kg/injection, schedule: Q01DX005 (ip), vehicle: saline with Tween-80.
The mark [5] stands for this setting: dose: 100.0 mg/kg/injection, schedule: Q01DX005 (ip), vehicle: saline with Tween-80.
Where [6] appears, read: dose: 200.0 mg/kg/injection, schedule: Q01DX005 (ip), vehicle: saline with Tween-80.

Values joined by “and” are separate entries in the source; they are usually repeats but may differ in a detail not shown here. Equal values may be shown once. Inconclusive results and toxic doses are left out.

Turning to `O=c1n(CC2CO2)c(=O)n(CC2CO2)c(=O)n1CC1CO1` (stereo not drawn), the T/C is 203 % of control and 172 % of control (dose: 6.25 mg/kg/injection, schedule: Q01DX009 (ip), vehicle: suspension in saline); 165 % of control and 186 % of control (dose: 12.5 mg/kg/injection, schedule: Q01DX009 (ip), vehicle: saline); 197 % of control and 216 % of control (dose: 12.5 mg/kg/injection, schedule: Q01DX009 (ip), vehicle: suspension in saline); 200 % of control (dose: 15.0 mg/kg/injection, schedule: Q01DX005 (ip), vehicle: saline with Tween-80); 161 % of control (dose: 15.0 mg/kg/injection, schedule: Q01DX005 (ip), vehicle: saline); 313 % of control (dose: 20.0 mg/kg/injection, schedule: Q01DX009 (ip), vehicle: saline). Besides, the T/C (dose: 20.0 mg/kg/injection, schedule: Q01DX009 (sc), vehicle: saline) was 172 % of control and 220 % of control; the T/C (dose: 25.0 mg/kg/injection, schedule: Q01DX009 (ip), vehicle: saline) is 167 % of control and 205 % of control; the T/C (dose: 25.0 mg/kg/injection, schedule: Q01DX009 (ip), vehicle: suspension in saline) is 226 % of control and 281 % of control; the T/C (dose: 25.0 mg/kg/injection, schedule: Q01DX009 (sc), vehicle: saline) was 157 % of control and 265 % of control; the T/C (dose: 30.0 mg/kg/injection, schedule: Q01DX005 (ip), vehicle: saline) is 192 % of control; the T/C (dose: 30.0 mg/kg/injection, schedule: Q01DX009 (ip), vehicle: saline) is 272 % of control and 290 % of control and 316 % of control. The T/C reads like this: (dose: 30.0 mg/kg/injection, schedule: Q01DX009 (sc), vehicle: saline) 161 % of control and 247 % of control; (dose: 40.0 mg/kg/injection, schedule: Q01DX009 (sc), vehicle: saline) 277 % of control; (dose: 40.0 mg/kg/injection, schedule: Q04DX003 (ip), vehicle: saline) 184 % of control and 188 % of control and 218 % of control; under setting [1], 200 % of control [middle of 5 runs]; (dose: 50.0 mg/kg/injection, schedule: Q01DX009 (ip), vehicle: suspension in saline) 100 % of control; (dose: 50.0 mg/kg/injection, schedule: Q04DX003 (ip), vehicle: saline) 206 % of control and 217 % of control and 290 % of control. Also, the T/C by setting is: (dose: 60.0 mg/kg/injection, schedule: Q01DX001 (ip), vehicle: other) 262 % of control and 271 % of control; (dose: 60.0 mg/kg/injection, schedule: Q01DX001 (ip), vehicle: saline) 271 % of control; (dose: 60.0 mg/kg/injection, schedule: Q01DX001 (ip), vehicle: water) 260 % of control; (dose: 60.0 mg/kg/injection, schedule: Q04DX003 (ip), vehicle: saline) 233 % of control and 245 % of control and 300 % of control; (dose: 70.0 mg/kg/injection, schedule: Q01DX001 (ip), vehicle: other) 231 % of control and 281 % of control; (dose: 70.0 mg/kg/injection, schedule: Q01DX001 (ip), vehicle: saline) 274 % of control. The T/C is 184 % of control (dose: 70.0 mg/kg/injection, schedule: Q01DX001 (ip), vehicle: water); 291 % of control and 349 % of control (dose: 80.0 mg/kg/injection, schedule: Q01DX001 (ip), vehicle: other); 291 % of control (dose: 80.0 mg/kg/injection, schedule: Q01DX001 (ip), vehicle: saline); 223 % of control (dose: 80.0 mg/kg/injection, schedule: Q01DX001 (ip), vehicle: water); 420 % of control (dose: 90.0 mg/kg/injection, schedule: Q01DX001 (ip), vehicle: saline); 210 % of control (dose: 100.0 mg/kg/injection, schedule: Q01DX001 (ip), vehicle: saline). For the same compound, the T/C was 285 % of control and 156 % of control and 228 % of control (dose: 100.0 mg/kg/injection, schedule: Q01DX009 (ip), vehicle: saline); 107 % of control (dose: 200.0 mg/kg/injection, schedule: Q01DX009 (ip), vehicle: saline).

In the case of `OC(c1ccccc1)C(C(c1ccccc1)N1CCCc2ccccc21)N1CCOCC1` (stereo not drawn), the T/C (dose: 50.0 mg/kg/injection, schedule: Q01DX005 (ip), vehicle: Klucel (hydroxypropylcellulose) (HPC)) is 99 % of control; the T/C (dose: 100.0 mg/kg/injection, schedule: Q01DX005 (ip), vehicle: Klucel (hydroxypropylcellulose) (HPC)) was 93 % of control; the T/C (dose: 200.0 mg/kg/injection, schedule: Q01DX005 (ip), vehicle: Klucel (hydroxypropylcellulose) (HPC)) is 90 % of control.

As to `Cc1cc(OCCCCCCC[N+](C)(C)Cc2ccc([N+](=O)[O-])o2)c(C(C)C)cc1Cl`, the T/C runs as follows: under setting [2], 99 % of control; under setting [3], 92 % of control.

Turning to `CC1CN1P(=O)(N1CCCCCC1)N1CC1C` (stereo not drawn), the T/C runs as follows: under setting [2], 104 % of control; (dose: 22.0 mg/kg/injection, schedule: Q01DX009 (ip), vehicle: saline) 122 % of control; under setting [3], 100 % of control; (dose: 33.0 mg/kg/injection, schedule: Q01DX009 (ip), vehicle: saline) 155 % of control; under setting [1], 154 % of control and 166 % of control; (dose: 75.0 mg/kg/injection, schedule: Q01DX009 (ip), vehicle: saline) 111 % of control. Further, the T/C (dose: 100.0 mg/kg/injection, schedule: Q04DX003 (ip), vehicle: saline) is 158 % of control.

Turning to `CC(CN(C)C)Nc1c2ccccc2nc2cccc([N+](=O)[O-])c12` (stereo not drawn), the T/C was 87 % of control (dose: 0.04 mg/kg/injection, schedule: Q01DX009 (ip), vehicle: saline); 101 % of control (dose: 0.09 mg/kg/injection, schedule: Q01DX009 (ip), vehicle: saline); 102 % of control and 113 % of control (dose: 0.19 mg/kg/injection, schedule: Q01DX009 (ip), vehicle: saline); 109 % of control (dose: 0.39 mg/kg/injection, schedule: Q01DX009 (ip), vehicle: saline).

On to `O=C(O)c1cccc(/C=C/c2ccccc2)c1`, for which the T/C was 107 % of control under setting [4], 105 % of control under setting [5] and 114 % of control under setting [6].

As for `CC(C)NC(=O)OCc1c(COC(=O)NC(C)C)c2n(c1-c1ccc(Cl)c(Cl)c1)CCS2(=O)=O`, the T/C (dose: 25.0 mg/kg/injection, schedule: Q01DX005 (ip), vehicle: saline with Tween-80) was 106 % of control; the T/C under setting [4] was 97 % of control; the T/C under setting [5] was 88 % of control; the T/C under setting [6] was 86 % of control.

With `NCCN.NCCN.[Cl-].[O]=[Re]=[O]`, the T/C was 100 % of control (dose: 60.0 mg/kg/injection, schedule: Q01DX005 (ip), vehicle: saline); 102 % of control (dose: 120.0 mg/kg/injection, schedule: Q01DX005 (ip), vehicle: saline); 100 % of control (dose: 240.0 mg/kg/injection, schedule: Q01DX005 (ip), vehicle: saline).

Regarding `CC(C)CCCCCCCCCCCCC(=O)NCCC(=O)NC1C(CO)OC(Nc2ncnc3nc[nH]c23)C(O)C1O` (stereo not drawn), the T/C was 107 % of control (dose: 0.39 mg/kg/injection, schedule: Q01DX009 (ip), vehicle: other); 102 % of control (dose: 0.78 mg/kg/injection, schedule: Q01DX009 (ip), vehicle: other); 156 % of control (dose: 1.56 mg/kg/injection, schedule: Q01DX009 (ip), vehicle: other); 112 % of control and 96 % of control (dose: 6.25 mg/kg/injection, schedule: Q01DX009 (ip), vehicle: other); 93 % of control (dose: 12.5 mg/kg/injection, schedule: Q01DX009 (ip), vehicle: other).

As to `CC(C)(C)C1=CC(=C/C=C/c2cc(C(C)(C)C)[o+]c(C(C)(C)C)c2)C=C(C(C)(C)C)O1`, the T/C (dose: 1.56 mg/kg/injection, schedule: Q01DX009 (ip), vehicle: Klucel (hydroxypropylcellulose) (HPC)) was 105 % of control; the T/C (dose: 3.12 mg/kg/injection, schedule: Q01DX009 (ip), vehicle: Klucel (hydroxypropylcellulose) (HPC)) was 96 % of control; the T/C (dose: 6.25 mg/kg/injection, schedule: Q01DX009 (ip), vehicle: Klucel (hydroxypropylcellulose) (HPC)) was 109 % of control and 111 % of control; the T/C (dose: 12.5 mg/kg/injection, schedule: Q01DX009 (ip), vehicle: Klucel (hydroxypropylcellulose) (HPC)) was 108 % of control and 116 % of control; the T/C (dose: 25.0 mg/kg/injection, schedule: Q01DX009 (ip), vehicle: Klucel (hydroxypropylcellulose) (HPC)) was 109 % of control.

Consider `COc1cc2c(cc1OC)C(O)C1CCCNC1C2` (stereo not drawn), for which the T/C by setting is: (dose: 25.0 mg/kg/injection, schedule: Q04DX002 (ip), vehicle: saline) 98 % of control; (dose: 50.0 mg/kg/injection, schedule: Q04DX002 (ip), vehicle: saline) 103 % of control; (dose: 100.0 mg/kg/injection, schedule: Q04DX002 (ip), vehicle: saline) 102 % of control; (dose: 200.0 mg/kg/injection, schedule: Q04DX002 (ip), vehicle: saline) 102 % of control; (dose: 400.0 mg/kg/injection, schedule: Q04DX002 (ip), vehicle: saline) 101 % of control.

The values above are taken from PubChem BioAssay AID330 (DTP/NCI, 2004).
